Data on one compound can be found in patent US10413529B2, “Methods of inhibiting cataracts and presbyopia” (UNIVERSITY OF MASSACHUSETTS, priority 2013, dated 2019).

The structures appear in SMILES notation.

The target of one experiment is T1, γS-crystallin (Homo sapiens, UniProt P22914).
T1 construct: 6xHis (N); made in house; host or cells: M15pRep E. coli (pQe1 plasmid from King Labs, MIT)
T1 sequence (P22914 1-178): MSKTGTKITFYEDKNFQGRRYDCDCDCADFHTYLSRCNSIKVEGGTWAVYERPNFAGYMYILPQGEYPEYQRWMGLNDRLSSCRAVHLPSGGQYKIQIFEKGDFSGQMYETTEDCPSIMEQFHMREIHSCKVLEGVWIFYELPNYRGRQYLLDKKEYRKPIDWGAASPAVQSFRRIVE
Description: Dynamic light scattering (DLS) of γS-crystallin, hydrodynamic radius of monomer and aggregate. It counts as biochemical. The conditions noted are these: γS modified with the agent. On the procedure: The scattering wave vector is defined as q=4πn sin (θ/2)/λ, where θ is the scattering angle, and λ=514.5, the wavelength of the argon laser in vacuum, and n is 1.33, the refractive index of water. The temperature of the sample was held at constant temperature of 4 to 37±0.1° C. by a circulating water bath. The correlation function was analyzed using CONTIN analysis [NT] times for the correlation functions at measured angles. […] The delay times (τ) were converted to Γ and graphed versus q^2. The slope of the fitted line is the diffusion coefficient (D). […] All solutions were filtered with 0.22 μm hydrophobic PVDF membranes (Fisher Scientific) into 10 mm diameter borosilicate glass tubes and sealed. Solutions were allowed to equilibrate for thirty minutes prior to measuring light scattering. […] The pH and salt concentration were adjusted via overnight dialysis at 4° C. and their final concentration adjusted to 1.0 g/L. […] The scattering wave vector is defined as q=4πn sin (θ/2)/λ, where θ is the scattering angle, and λ=514.5, the wavelength of the argon laser in vacuum, and n is 1.33, the refractive index of water. The temperature of the sample was held at constant temperature of 4 to 37±0.1° C. by a circulating water bath. The correlation function was analyzed using CONTIN analysis [NT] times for the correlation functions at measured angles. […] The delay times (τ) were converted to Γ and graphed versus q^2. The slope of the fitted line is the diffusion coefficient (D). […] All solutions were filtered with 0.22 μm hydrophobic PVDF membranes (Fisher Scientific) into 10 mm diameter borosilicate glass tubes and sealed. Solutions were allowed to equilibrate for thirty minutes prior to measuring light scattering.

The subject of a further experiment is γ-crystallin. Nature of the experiment: DLS, aggregation of γ-crystallin (stated for γD and γS together). As to conditions: dilute solution, 22° and 37° C. In kind it is biochemical. Here is the method: Scattering intensity was measured at angles between 30° and 90° at 5° intervals, corresponding to a scattering wave vector (q) range between 8.41×10^6 and 2.30×10^7 m^−1. The scattering wave vector is defined as q=4πn sin (θ/2)/λ, where θ is the scattering angle, and λ=514.5, the wavelength of the argon laser in vacuum, and n is 1.33, the refractive index of water. The temperature of the sample was held at constant temperature of 4 to 37±0.1° C. by a circulating water bath.
The correlation function was analyzed using CONTIN analysis to calculate lag times for the correlation functions at measured angles. The peaks represent the diffusive mode of the proteins. The delay times (τ) were converted to Γ and graphed versus q^2. The slope of the fitted line is the diffusion coefficient (D). The lines are fitted such that the intercept is zero because a non-zero value of q=0 is unphysical. The Γ versus q^2 plots were linear with r^2 values of 0.95 or greater.
All solutions were filtered with 0.22 μm hydrophobic PVDF membranes (Fisher Scientific) into 10 mm diameter borosilicate glass tubes and sealed. Solutions were allowed to equilibrate for thirty minutes prior to measuring light scattering.
γ-crystallins were subjected to a variety of experimental conditions, including a range of pHs (5, 6, 7, 8, 9, 10, 11), concentrations of KCl (100 mM, 150 mM, 300 mM, 500 mM, 1000 mM) and temperature (4.5° C., 22° C., 37° C.). The pH and salt concentration were adjusted via overnight dialysis at 4° C. and their final concentration adjusted to 1.0 g/L.
It had been hypothesized that disulfide bonds might mediate the observed γ-crystallin aggregates. The DLS of the γ-crystallin proteins was also measured in 5 mM DTT, and in the presence of 1.0 g/L α-crystallin. […] Thus, this hypothesis was incorrect.
Further, the synthesized α-crystallin proteins were mixed with γ-crystallin proteins to determine if the chaperoning ability of α-crystallin disrupts the γ-crystallin aggregates. The α-A and α-B crystallins were each individually mixed with γD- or γS-crystallin in a molar ratio of 3:1, respectively, mimicking the ratio found in the human eye lens. All solutions were allowed to equilibrate for an hour at 4° C.

Turning to `NCCOCCOCCOCCOCCC(=O)O` [CAPEG4], the Rh on γS-crystallin (fast mode (monomer), 37° C.) is 3 nm; on γS-crystallin (fast mode (monomer), 37° C., listed as CAPEG), 2.9 nm; at γS-crystallin (fast mode (monomer, first Rh column), 22° C.), 2.8 nm; at γS-crystallin (fast mode (monomer, first Rh column), 22° C., listed as CAPEG), 2.9 nm. The “aggregation of γ-crystallin modified with the agent (DLS)” value in the experiment on γ-crystallin is “prevented aggregation of proteins”.
